The results in this text go back to patent EP0846119B1, “THIENOPYRIMIDINE DERIVATIVES, THEIR PRODUCTION AND USE AS ENDOTHELIN ANTAGONISTS” (Takeda Chemical Industries, Ltd., priority 1995, dated 1997).

Test [1] addresses T1, human ETA 24 endothelin receptor (Homo sapiens, UniProt P25101).
T1 construct: expressed in transfected cells; host or cells: CHO cells (clone ETA 24)
T1 sequence (P25101 21-427): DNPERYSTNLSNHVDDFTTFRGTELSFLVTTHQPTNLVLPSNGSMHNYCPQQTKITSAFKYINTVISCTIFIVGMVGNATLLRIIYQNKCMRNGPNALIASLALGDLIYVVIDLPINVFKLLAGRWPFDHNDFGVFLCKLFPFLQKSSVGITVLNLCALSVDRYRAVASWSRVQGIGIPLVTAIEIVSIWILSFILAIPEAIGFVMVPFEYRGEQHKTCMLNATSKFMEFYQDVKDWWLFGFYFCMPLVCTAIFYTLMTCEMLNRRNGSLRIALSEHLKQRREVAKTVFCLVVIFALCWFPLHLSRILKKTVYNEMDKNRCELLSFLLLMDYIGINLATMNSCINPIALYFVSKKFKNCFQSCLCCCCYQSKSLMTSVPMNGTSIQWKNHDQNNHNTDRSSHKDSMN
The experiment in a line: Binding Test to ETA receptor expressed in CHO cell (ET-1-stimulated [3H]arachidonic acid release). In kind it is cell-based. Conditions: CHO cell expressing human ETA (ETA 24 cells), final concentration of ET-1 6.3x10^-10M, n=2. As for the experimental part: Binding Test to ETA receptor expressed in CHO cell:
cells: CHO cell expressing human ETA 24 endothelin receptor, i.e. ETA 24 cells medium: DMEM 10% FCS Gln, nonessential amino acids, penicillin, streptomycin
Cells were seeded in 12 wells of 24 well plates at a density of 2x10^5 cells/well (1 ml medium/well). On the next day, [^3H]arachidonic acid was added to each well to be 250 nCi(nanocurie)/ml. On the next day, the medium was sucked from the wells by the use of an aspirator to remove free arachidonic acid and floating cells, and then 0.5 ml of medium was added. This procedure was repeated again. After allowing to stand for 30 minutes in a CO2 incubator, the medium was exchanged rapidly.
The sample of compound obtained in Example 5 or compound 16 of Example 11 was stepwise diluted with a buffer solution for dilution, containing 3.15x10^-8M endothelin-1 (ET-1) {20 mM Tris, 5 mM Mg(AcO)2, 2 mM EGTA, 0.03% NaN3, 0.1% BSA, 0.05% CHAPS}. 10 µl of the solution was added to each well (final concentration of ET-1: 6.3x10^-10M). […] After allowing to-stand for 30 minutes in the CO2 incubator, the medium was completely collected and the radio activity of [^3H]arachidonic acid released in the medium was measured by a liquid scintillation counter. IC50 values were calculated by hill plot from the concentration and relative reaction value of each sample. […]

In test [2] the target is T2, human endothelin-A (ETA) receptors (Homo sapiens, UniProt P25101).
T2 construct: made in house; host or cells: Sf9 insect cells (membrane fractions)
T2 sequence (P25101 21-427): T1 sequence (P25101 21-427)
The experiment in a line: Binding Test to ETA receptor expressed in an insect cell Sf9 ([125I]endothelin-1 displacement). As for the experimental part: Binding Test to ETA receptor expressed in an insect cell Sf9:
Endothelin (ET) receptors were prepared by diluting fractions of insect cell (Sf9) membrane having human endothelin-A (ETA) receptors expressed, with an assay buffer {20 mM Tris-HCl, 2 mM EGTA (ethyleneglycol bls(2-aminoethylether) tetra acetic acid), 5 mM magnesium acetate, 0.1% BSA (bovine serum albumin), 0.03% NaN3, 0.5 mM PMSF (phenyl methyl sulfonyl fluoride), 20 µg/ml leupeptin, 4 µg/ml E-64 (products of the Peptide Institute, Japan), 1 µg/ml pepstatin, (pH 7.2)} respectively in a concentration of 1.4 µg/ml in the former case and 0.7 µg/ml in the latte case.
To 100 µl of each portion was added 5 nM[^125I] endothelin-1 (2 µl). A dimethylsulfoxide solution (3 µl) of the test compound was added thereto and incubated at 25°C for 60 minutes.
And, to determine the maximum binding amount (B0) and non-specific binding amount (NSB), lots to which a dimethyl sulfoxide solution (3 µl) or a dimethyl sulfoxide solution (3 µl) containing endothelin-1 (10^-3M) had been added, were also incubated.
These lots were supplemented with 0.05% CHAPS(3-[(3-chloroamidopropyl)dimethylammonio]-1-propanesulfonate)-assay buffer (1.5 ml), subjected to filtration through a glass fiber filter GF/F (trade name; product of Whatman Ltd. (England)), and then washed with the same buffer (1.5 ml)).
Radioactivity on the filter was counted in a gamma-counter to determine the Percent Maximum Binding (PMB) in accordance with the aforesaid calculation formula. The concentration causing PMB=50% was determined as IC50 value.

Setting [3] is: Sf9 membrane fractions, [125I]endothelin-1, 25°C, 60 minutes, concentration causing PMB=50%, read-out: IC50 value: µM Human endotherin-A receptor.
[4] abbreviates: Table 5, values recur in Table 7, read-out: Binding IC50 (µM) ETA.

Structures are written as SMILES. Like-named read-outs stand apart in the source and are kept apart here.

For the compound `CCS(=O)(=O)NCc1c(-c2ccc(OCOC)cc2)sc2c1c(=O)n(CC(=O)O)c(=O)n2Cc1ccccc1SC` [11(16), 2,4(1H,3H)-Dioxo-6-(4-methoxymethoxyphenyl)-1-(2-methylthiobenzyl)-5-(ethanesulfonamidomethyl)thieno[2,3-d]pyrimidine-3-acetic acid], the IC50 (commonly the concentration that gives 50% inhibition) in test [1] is 110 nM; in test [2] (setting [3]), 0.0061 µM; in test [2] (setting [4]) it was 0.0061 µM.
With `COCOc1ccc(-c2sc3c(c2CNS(C)(=O)=O)c(=O)n(CC(=O)O)c(=O)n3Cc2ccccc2SC)cc1` [Example 5, 2,4(1H,3H)-dioxo-6-(4-methoxymethoxyphenyl)-1-(2-methylthiobenzyl)-5-(methanesulfonamidomethyl)thieno[2,3-d]pyrimidine-3-aretic acid], the IC50 in test [1] was found to be 390 nM; in test [2] (setting [3]) it was 0.011 µM; in test [2] (setting [4]), 0.0076 µM.
